Key:
Format in all cases: in vivo
[1] = test system: Poa annua; experiment: Single application to warm season turfgrass according to the disclosed methods (summary statement); conditions: early post-emergence, for at least 120 days following application
[2] = test system: Poa annua; experiment: Field trial, bermudagrass stands infested with Poa annua, Clayton, North Carolina, autumn 2022; conditions: FIG. 11
From the text: (§1) As used herein, the term “Abbott's percentage reduction,” in all of its forms, refers to a measure of percentage control relative to the population in an untreated control stand of turfgrass. Rather than representing a simple percentage control on a per treatment basis, the Abbott's percentage reduction measure accounts for naturally occurring shifts in the target population and limits rating bias over time. Abbott's percentage reduction may be represented by the following
Stands of bermudagrass infested with Poa annua were treated with thiencarbazone-methyl (TCM) at different stages of Poa annua development and under different climatological conditions in a set of trials conducted during the autumn of 2022 in Clayton, North Carolina. Stands of bermudagrass containing Poa annua in a pre-emergent growth phase were treated with thiencarbazone-methyl (TCM) on September 23rd. Stands of bermudagrass containing Poa annua in an early post-emergent growth state characterized by having two or fewer tillers were treated with thiencarbazone-methyl (TCM) on November 21st. Stands of bermudagrass containing Po annua in a late post-emergent growth state characterized by having more than two tillers were treated with thiencarbazone-methyl (TCM) on December 8th. The Clayton trial data is shown in FIG. 11 while FIG. 13 provides the corresponding environmental data for Clayton during the trials. […]

[3] = test system: Poa annua; experiment: Field trial, bermudagrass stands infested with Poa annua, Blacksburg, Virginia, autumn 2022; conditions: FIG. 10
From the text: as §1
Stands of bermudagrass infested with Poa annua were treated with thiencarbazone-methyl (TCM) at different stages of Poa annua development and under different climatological conditions in a set of trials conducted during the autumn of 2022 in Blacksburg, Virginia. Stands of bermudagrass containing Poa annua in a pre-emergent growth phase were treated with thiencarbazone-methyl (TCM) on September 14th. Stands of bermudagrass containing Poa annua in an early post-emergent growth state characterized by having two or fewer tillers were treated with thiencarbazone-methyl (TCM) on October 5th. Stands of bermudagrass containing Poa annua in a late post-emergent growth state characterized by having more than two tillers were treated with thiencarbazone-methyl (TCM) on November 9th. The Blacksburg trial data is shown in FIG. 10 while FIG. 12 provides the corresponding environmental data for Blacksburg during the trials. The Days After Application “DAA” shown in FIG. 10 refers to the days after thiencarbazone-methyl (TCM) was applied to the stands of bermudagrass containing Poa annua in a pre-emergent growth phase on Sep. 14, 2022. The horizontal line in FIG. 12 represents the temperature (66 degrees Fahrenheit) at which peak Poa annua germination has been observed. […] However, treatment of bermudagrass stands containing Poa annua at a later growth stage fell well below the minimum commercially acceptable 80% Abbott control threshold effectiveness.

COC(=O)c1csc(C)c1S(=O)(=O)NC(=O)n1nc(OC)n(C)c1=O [thiencarbazone-methyl, methyl 4-[(3-methoxy-4-methyl-5-oxo-1,2,4-triazole-1-carbonyl)sulfamoyl]-5-methylthiophene-3-carboxylate]
< 80%: Abbott control threshold effectiveness ([2]; Poa annua at a later growth stage (more than two tillers, treated December 8)) | Abbott control threshold effectiveness ([3]; Poa annua at a later growth stage (more than two tillers, treated November 9))
≥ 80%: reduction in Poa annua population [1] | Abbott control threshold effectiveness ([2]; 30 g/ha, early post-emergent growth phase (two or fewer tillers, treated November 21), 117 days after the pre-emergence treatment application) | Abbott control threshold effectiveness ([3]; 15 g/ha, early post-emergent growth phase (two or fewer tillers, treated October 5), 77, 91 and 148 days after the pre-emergence treatment application) | Abbott control threshold effectiveness ([3]; 30 g/ha, early post-emergent growth phase (two or fewer tillers, treated October 5), 77, 91 and 148 days after the pre-emergence treatment application)

— patent US20250268261A1, “METHODS FOR THE CONTROL OF POA ANNUA IN WARM SEASON TURFGRASS USING THIENCARBAZONE-METHYL” (Discovery Purchaser Corporation, priority 2024, published 2025)
